# Source: patent US10221179B2, “Substituted pyrazoloquinazolinones and pyrroloquinazolinones as allosteric modulators of group II metabotropic glutamate receptors” (DOMAIN THERAPEUTICS, priority 2014, dated 2019)
# Counter-ions that a name gives are not always drawn.
row,melting point [°C],Structure (SMILES)
1,> 250,CN1CCN(c2ccc3c(=O)n(C)c4cc(-c5ccnc(C(F)(F)F)c5)nn4c3c2)CC1.Cl
2,> 250,Cl.Cn1c(=O)c2ccc(N3CCNCC3)cc2n2nc(-c3ccnc(C(F)(F)F)c3)cc12
3,205 to 210,Cn1c(=O)c2cc(C(F)(F)F)ccc2n2nc(-c3ccnc(C(F)(F)F)c3)cc12 [Example 37]
4,> 250,"CC(=O)Nc1ccc2c(c1)c(=O)n(C)c1cc(-c3ccnc(C(F)(F)F)c3)nn21 [Example 42, N-[4-Methyl-5-oxo-2-(2-trifluoromethyl-pyridin-4-yl)-4,5-dihydro-pyrazolo[1,5-a]quinazolin-7-yl]-acetamide]"
5,245 to 250,"Cn1c(=O)c2cc(N)ccc2n2nc(-c3ccnc(C(F)(F)F)c3)cc12 [Example 43, 7-Amino-4-methyl-2-(2-trifluoromethyl-pyridin-4-yl)-4H-pyrazolo[1,5-a]quinazolin-5-one]"
6,220 to 225,"Cn1c(=O)c2cc(NC3CCC3)ccc2n2nc(-c3ccnc(C(F)(F)F)c3)cc12 [Example 46, 7-Cyclobutylamino-4-methyl-2-(2-trifluoromethyl-pyridin-4-yl)-4H-pyrazolo[1,5-a]quinazolin-5-one]"
7,240 to 245,"Cn1c(=O)c2cc(OC(F)(F)F)ccc2n2nc(-c3ccnc(C(F)(F)F)c3)cc12 [Example 52, 4-Methyl-7-trifluoromethoxy-2-(2-trifluoromethyl-pyridin-4-yl)-4H-pyrazolo[1,5-a]quinazolin-5-one]"
8,> 250,"Cn1c(=O)c2cc(S(C)(=O)=O)ccc2n2nc(-c3ccnc(C(F)(F)F)c3)cc12 [Example 53, 7-Methanesulfonyl-4-methyl-2-(2-trifluoromethyl-pyridin-4-yl)-4H-pyrazolo[1,5-a]quinazolin-5-one]"
9,> 250,"COc1ccc2c(=O)n(C)c3cc(-c4ccnc(C(F)(F)F)c4)nn3c2c1 [Example 54, 8-Methoxy-4-methyl-2-(2-trifluoromethyl-pyridin-4-yl)-4H-pyrazolo[1,5-a]quinazolin-5-one]"
10,> 250,"Cn1c(=O)c2ccc(N3CCOCC3)cc2n2nc(-c3ccnc(C(F)(F)F)c3)cc12 [Example 59, 4-Methyl-8-morpholin-4-yl-2-(2-trifluoromethyl-pyridin-4-yl)-4H-pyrazolo[1,5-a]quinazolin-5-one]"
11,> 250,"Cn1c(=O)c2ccc(N3CCCC3)cc2n2nc(-c3ccnc(C(F)(F)F)c3)cc12 [Example 60, 4-Methyl-8-pyrrolidin-1-yl-2-(2-trifluoromethyl-pyridin-4-yl)-4H-pyrazolo[1,5-a]quinazolin-5-one]"
12,> 250,"COC1CCN(c2ccc3c(=O)n(C)c4cc(-c5ccnc(C(F)(F)F)c5)nn4c3c2)CC1 [Example 62, 8-(4-Methoxy-piperidin-1-yl)-4-methyl-2-(2-trifluoromethyl-pyridin-4-yl)-4H-pyrazolo[1,5-a]quinazolin-5-one]"
13,205 to 210,"Cn1c(=O)c2ccc(N3CCC(CO)CC3)cc2n2nc(-c3ccnc(C(F)(F)F)c3)cc12 [Example 67, 8-(4-Hydroxymethyl-piperidin-1-yl)-4-methyl-2-(2-trifluoromethyl-pyridin-4-yl)-4H-pyrazolo[1,5-a]quinazoin-5-one]"
14,> 250,"Cn1c(=O)c2ccc(N3CC(CO)C3)cc2n2nc(-c3ccnc(C(F)(F)F)c3)cc12 [Example 69, 8-(3-Hydroxymethyl-azetidin-1-yl)-4-methyl-2-(2-trifluoromethyl-pyridin-4-yl)-4H-pyrazolo[1,5-a]quinazolin-5-one]"
15,> 250,"Cn1c(=O)c2ccc(N3CCC(C)(O)CC3)cc2n2nc(-c3ccnc(C(F)(F)F)c3)cc12 [Example 71, 8-(4-Hydroxy-4-methyl-piperidin-1-yl)-4-methyl-2-(2-trifluoromethyl-pyridin-4-yl)-4H-pyrazolo[1,5-a]quinazolin-5-one]"
16,> 250,"Cc1ccc2c(=O)n(C)c3cc(-c4ccnc(C(F)(F)F)c4)nn3c2c1 [Example 72, 4,8-Dimethyl-2-(2-trifluoromethyl-pyridin-4-yl)-4H-pyrazolo[1,5-a]quinazolin-5-one]"
17,> 250,"Cn1c(=O)c2ccc(C3CC3)cc2n2nc(-c3ccnc(C(F)(F)F)c3)cc12 [Example 73, 8-Cyclopropyl-4-methyl-2-(2-trifluoromethyl-pyridin-4-yl)-4H-pyrazolo[1,5-a]quinazolin-5-one]"

# The next lines start with the compound.
row,Structure (SMILES),melting point [°C]
1,Cl.Cn1c(=O)c2cc(OCCN3CCOCC3)ccc2n2nc(-c3ccnc(C(F)(F)F)c3)cc12,> 250
2,Cl.Cn1c(=O)c2ccccc2n2nc(-c3ccnc(C4CCCC4)c3)cc12,> 250
3,Cl.Cn1c(=O)c2ccccc2n2nc(-c3ccnc(C4CCCCC4)c3)cc12,> 250
4,"COc1ccc2c(c1)c(=O)n(C)c1cc(-c3ccnc(C4CC4)c3)nn21 (as salt: HCl) [Example 100, 2-(2-Cyclopropyl-pyridin-4-yl)-7-methoxy-4-methyl-4H-pyrazolo[1,5-a]quinazolin-5-one]",230 to 240
5,"Cn1c(=O)c2ccccc2n2nc(-c3ccncc3)cc12 (as salt: HCl) [Example 104, 4-Methyl-2-pyridin-4-yl-4H-pyrazolo[1,5-a]quinazolin-5-one]",> 250
6,"Cc1cc(-c2cc3n(C)c(=O)c4ccccc4n3n2)cc(C2CC2)n1 (as salt: HCl) [Example 106, 2-(2-Cyclopropyl-6-methyl-pyridin-4-yl)-4-methyl-4H-pyrazolo[1,5-a]quinazolin-5-one]",> 250
7,"Cn1c(=O)c2ccccc2n2nc(-c3ccnc(OC4COC4)c3)cc12 [Example 18, 4-Methyl-2-[2-(oxetan-3-yloxy)-pyridin-4-yl]-4H-pyrazolo[1,5-a]quinazolin-5-one]",219 to 223
8,"COCCOc1cc(-c2cc3n(C)c(=O)c4ccccc4n3n2)ccn1 [Example 20, 2-[2-(2-Methoxy-ethoxy)-pyridin-4-yl]-4-methyl-4H-pyrazolo[1,5-a]quinazolin-5-one]",169 to 173
9,"O=c1c2ccccc2n2nc(-c3ccnc(C(F)(F)F)c3)cc2n1CC(F)F [Example 29, 4-(2,2-Difluoro-ethyl)-2-(2-trifluoromethyl-pyridin-4-yl)-4H-pyrazolo[1,5-a]quinazolin-5-one]",223 to 230
10,"COCCn1c(=O)c2ccccc2n2nc(-c3ccnc(C(F)(F)F)c3)cc12 [Example 30, 4-(2-Methoxy-ethyl)-2-(2-trifluoromethyl-pyridin-4-yl)-4H-pyrazolo[1,5-a]quinazolin-5-one]",165 to 174
11,"Cn1c(=O)c2cc(N3CCOCC3)ccc2n2nc(-c3ccnc(C(F)(F)F)c3)cc12 [Example 47, 4-Methyl-7-morpholin-4-yl-2-(2-trifluoromethyl-pyridin-4-yl)-4H-pyrazolo[1,5-a]quinazolin-5-one]",149 to 163
12,"COCCOc1ccc2c(c1)c(=O)n(C)c1cc(-c3ccnc(C(F)(F)F)c3)nn21 [Example 50, 7-(2-Methoxy-ethoxy)-4-methyl-2-(2-trifluoromethyl-pyridin-4-yl)-4H-pyrazolo[1,5-a]quinazolin-5-one]",182 to 189
